Patent US20120010285A1, “AGENT FOR PROMOTING ENERGY CONSUMPTION” (KAO CORPORATION, priority 2009, published 2012)

Assays:
ACC2 mRNA = assay: Expression of ACC2 mRNA in cultured mouse liver cell line Hepa1-6 (quantitative PCR); type: cell-based; conditions: Hepa1-6 cells, each of the chlorogenic acids (Production Example 4) 5 mM, 24 hours, control at 100
Method: (§1) A cultured mouse liver cell line (Hepa1-6 cell) was cultured in 10% bovine serum-containing Dulbeco's Modified Eagle's Medium (DMEM) at 37° C., 5% CO2. The cells were seeded in a 6-well plate, and when they reached subconfluency, the medium was replaced by a serum free medium (DMEM, -FBS), followed by culturing for further 12 hours. Subsequently, various samples were added (final concentration: chlorogenic acids (Production Example 1) 2.5×10^−4% (w/v) and each of the chlorogenic acids (Production Example 4) 5 mM), and after 24 hours of culturing, total RNA was prepared according to a standard method. After preparing cDNA by reverse transcription reaction, quantitative PCR was performed by ABI PRISM 7000 Sequence Detection System (Applied Biosystems) using Power SYBR Green Master Mix (Applied Biosystems). Also, the expression level of each gene was corrected using the expression level of 36B4 as an internal standard, and represented as a relative expression level by setting the expression level of control at 100.

PDK4 mRNA = assay: Expression of PDK4 mRNA in cultured mouse liver cell line Hepa1-6 (quantitative PCR); type: cell-based; conditions: Hepa1-6 cells, each of the chlorogenic acids (Production Example 4) 5 mM, 24 hours, control at 100
Method: as §1

Compound	expression of ACC2 mRNA (ACC2 mRNA)	expression of PDK4 mRNA (PDK4 mRNA)
O=C(/C=C/c1ccc(O)c(O)c1)O[C@@H]1[C@H](O)C[C@@](O)(C(=O)O)C[C@H]1OC(=O)/C=C/c1ccc(O)c(O)c1 [3,4-dicaffeoylquinic acid]	significantly reduced	significantly inhibited
O=C(/C=C/c1ccc(O)c(O)c1)O[C@@H]1CC(O)(C(=O)O)C[C@@H](OC(=O)/C=C/c2ccc(O)c(O)c2)C1O (some centres unmarked) [3,5-dicaffeoylquinic acid]	significantly reduced	–
O=C(/C=C/c1ccc(O)c(O)c1)O[C@@H]1C[C@](O)(C(=O)O)C[C@@H](O)[C@H]1O [3-caffeoylquinic acid]	significantly reduced	significantly inhibited
O=C(/C=C/c1ccc(O)c(O)c1)O[C@H]1[C@H](O)C[C@](O)(C(=O)O)C[C@H]1OC(=O)/C=C/c1ccc(O)c(O)c1 [4,5-dicaffeoylquinic acid]	significantly reduced	–
O=C(/C=C/c1ccc(O)c(O)c1)O[C@H]1[C@H](O)C[C@](O)(C(=O)O)C[C@H]1O [4-caffeoylquinic acid]	significantly reduced	significantly inhibited
